Measured values: patent publication US4399286A, “Antiarrhythmic phenethylpiperidine compounds” (Mead Johnson & Company, priority 1981, dated 1983)

Assays:
[1] = test system: chloroform-induced arrhythmia; assay: inhibition of chloroform-induced arrhythmia in the mouse (J. W. Lawson method); format: in vivo; conditions: ip, intraperitoneal administration, read-out: ED50, prevention of chloroform-induced arrhythmia
Text: 2. In the mouse, another in vivo test involves the inhibition of chloroform-induced arrhythmia according to the method of J. W. Lawson, Journal of Pharmacology and Experimental Therapeutics, 160, 22 (1968).

rabbit atrium = assay: in vitro rabbit atrium test, steady state refractory period; conditions: rabbit left atrium, Chenoweth's solution, 30° C., stimulated at 30/minute, five minute interval
Procedure: 3. […] In this test, the left atrium is placed in Chenoweth's solution warmed to 30° C. and irrigated with 95% oxygen:5% carbon dioxide. The lower end of the atrium is attached to a small hook fixed in the bath and the upper end is connected to a transducer to record contractile activity. The atrium is electrically stimulated at a basic rate of 30/minute by employing square wave pulses of 10 millisecond duration at 1.2 to 1.5 times threshold voltage. A test compound is introduced into the bath and the test repeated after a five minute interval. A dose-response relationship is obtained with additional doses of the test compound. […] This value is designated the EC50.

EC50 (effective concentration which reduces to 50% the maximal increase in the steady state refractory period of the atrium) (rabbit atrium) [µg/mL] | Structure (SMILES) | ED50 [1] [mg/kg]
1.5 | CN1CCCCC1CCc1ccccc1NC(=O)Nc1ccccc1 (stereo not drawn) [Example 1, 2-[2-(1-Methyl-2-piperidinyl)ethyl]carbanilide] | 23
29 | COc1ccc(NC(=O)Nc2ccccc2CCC2CCCCN2C)cc1 (stereo not drawn) [Example 2, 4'-Methoxy-2-[2-(1-methyl-2-piperidinyl)ethyl]carbanilide] | 46
10 | COc1ccc(C(=N)Nc2ccccc2CCC2CCCCN2C)cc1 (stereo not drawn) [Example 15, N-[2-[2-(1-Methyl-2-piperidinyl)ethyl]phenyl]-p-anisamidine] | –

Structure (SMILES) | EC50 (effective concentration which reduces to 50% the maximal increase in the steady state refractory period of the atrium) (rabbit atrium) [µg/mL] | ED50 [1] [mg/kg]
CN1CCCCC1CCc1ccccc1NC(=S)Nc1ccccc1 (stereo not drawn) [Example 9, 2-[2-(1-Methyl-2-piperidinyl)ethyl]thiocarbanilide] | 5.9 | –
